In the supplement of paper PMC11061612:

Key:
Assay in all cases: Bliss excess, mean over the matrix (fraction); higher = more synergy
[1] = test system: DB (B-Cell Non-Hodgkin's Lymphoma)
Method in brief: (§1)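 Cell lines grown in DMEM/F12 or RPMI with 10% FBS were plated in 1536-well plates and held 24 hours at 37°C, 5% CO2 before 72 hours of exposure to two-drug dose matrices, with DMSO typically at 0.2%. CellTiter-Glo 2.0 luminescence gave viability, which was converted to inhibition. Vehicle wells were set to 0 and blank wells to 1. Combination Emax is the second-highest inhibition in the matrix, and Bliss excess is the observed combination effect minus the expected EA + EB − EA·EB, where EA and EB are the single-agent effects.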

[2] = test system: SW1088 (Low Grade Glioma)
Method in brief: as §1

[3] = test system: NCI-H1299 (Non-Small Cell Lung Carcinoma)
Method in brief: as §1

[4] = test system: NCI-H211 (Small Cell Lung Carcinoma)
Method in brief: as §1

[5] = test system: TE-5 (Esophageal Squamous Cell Carcinoma)
Method in brief: as §1

[6] = test system: DSH1 (Bladder Carcinoma)
Method in brief: as §1

[7] = test system: LS-513 (Colorectal Carcinoma)
Method in brief: as §1

[8] = test system: MDA-MB-157 (Breast Carcinoma)
Method in brief: as §1

[9] = test system: SW1783 (Low Grade Glioma)
Method in brief: as §1

[10] = test system: COR-L95 (Small Cell Lung Carcinoma)
Method in brief: as §1

[11] = test system: DOV13 (Ovarian Carcinoma)
Method in brief: as §1

[12] = test system: SN12C (Kidney Carcinoma)
Method in brief: as §1

[13] = test system: HT-29 (Colorectal Carcinoma)
Method in brief: as §1

[14] = test system: KARPAS-620 (Plasma Cell Myeloma)
Method in brief: as §1

Row | SMILES | Bliss excess [1] | Bliss excess [2] | Bliss excess [3] | Bliss excess [4] | Bliss excess [5] | Bliss excess [6] | Bliss excess [7] | Bliss excess [8] | Bliss excess [9] | Bliss excess [10] | Bliss excess [11] | Bliss excess [12] | Bliss excess [13] | Bliss excess [14]
1 | C[C@@H]1COCCN1c1cc(C2([S@](C)(=N)=O)CC2)nc(-c2ccnc3[nH]ccc23)n1 [AZD6738] + C1CC(C1)(C(=O)[O-])C(=O)[O-].N.N.[Pt+2] [Carboplatin] (first compound max 10 µM, 7x7, partner max 10 µM) | -0.0019 | -0.0426 | -0.0401 | -0.0292 | -0.0163 | -0.0559 | -0.0225 | -0.0061 | -0.0337 | -0.106 | -0.0236 | -0.026 | -0.0194 | -0.0135
2 | O=C(c1cc(Cc2n[nH]c(=O)c3ccccc23)ccc1F)N1CCN(C(=O)C2CC2)CC1 [Olaparib] + CN(CC[C@H](CSC1=CC=CC=C1)NC2=C(C=C(C=C2)S(=O)(=O)NC(=O)C3=CC=C(C=C3)N4CCC(CC4)[C@H](C5=CC=CC=C5C6=CC=C(C=C6)Cl)O)S(=O)(=O)C(F)(F)F)CCO [AZD4320] (first compound max 10 µM, 7x7, partner max 1 µM) | -0.0863 | -0.0518 | -0.0463 | 0.0233 | -0.0436 | 0.0308 | -0.0326 | -0.0094 | -0.0391 | 0.0593 | 0.0543 | -0.0401 | -0.0278 | 0.0017
3 | Cc1c2c(nn1C)CSCc1cc(n(C)n1)CSc1cc(c3ccccc3c1)OCCCc1c(C(=O)O)n(C)c3c-2c(Cl)ccc13 [AZD5991] + CS(=O)(=O)CCNCc1ccc(-c2ccc3ncnc(Nc4ccc(OCc5cccc(F)c5)c(Cl)c4)c3c2)o1 [Lapatinib] (first compound max 1 µM, 7x7, partner max 10 µM) | 0.0597 | -0.0137 | -0.0243 | -0.0118 | 0.0198 | 0.0013 | 0.0305 | 0.0108 | -0.0106 | -0.0199 | 0.0072 | 0.0035 | -0.0216 | 0.0054
4 | N#Cc1cnc(Nc2cc(NC[C@H]3CNCCO3)c(C(F)(F)F)cn2)cn1 [SRA737] + C=CCn1c(=O)c2cnc(Nc3ccc(N4CCN(C)CC4)cc3)nc2n1-c1cccc(C(C)(C)O)n1 [AZD1775] (first compound max 10 µM, partner max 1 µM) | 0.0626 | 0.0681 | 0.0448 | 0.169 | 0.0481 | -0.0441 | 0.0476 | 0.119 | 0.0153 | 0.0077 | 0.132 | -0.0184 | 0.0394 | 0.133
5 | C=CCn1c(=O)c2cnc(Nc3ccc(N4CCN(C)CC4)cc3)nc2n1-c1cccc(C(C)(C)O)n1 [AZD1775] + Nc1ccn([C@@H]2O[C@H](CO)[C@@H](O)C2(F)F)c(=O)n1 [Gemcitabine] (first compound max 1 µM, partner max 0.3 µM) |  | -0.0468 | 0.0513 | 0.0129 | -0.0678 | -0.0833 | -0.04 | 0.106 | 0.0121 | -0.0611 | 0.016 | 0.0719 | 0.0422 | 0.026
6 | CN(CCO)CC[C@H](CSc1ccccc1)Nc1ccc(S(=O)(=O)NC(=O)c2ccc(N3CCC([C@@H](O)c4ccccc4-c4ccc(Cl)cc4)CC3)cc2)cc1S(=O)(=O)C(F)(F)F [AZD4320] + CC(=O)O[C@H]1C(=O)[C@@]2(C)[C@H]([C@H](OC(=O)c3ccccc3)[C@]3(O)C[C@H](OC(=O)[C@H](O)[C@@H](NC(=O)c4ccccc4)c4ccccc4)C(C)=C1C3(C)C)[C@]1(OC(C)=O)CO[C@@H]1C[C@@H]2O [Paclitaxel] (first compound max 1 µM, 7x7, partner max 3 µM) | 0.043 | 0.0303 | 0.007 | 0.0259 | 0.176 | 0.163 | -0.0136 | 0.0168 | 0.0754 | 0.141 | 0.0136 | 0.153 | 0.0034 | 0.0111
7 | CS(=O)(=O)CCNCc1ccc(-c2ccc3ncnc(Nc4ccc(OCc5cccc(F)c5)c(Cl)c4)c3c2)o1 [Lapatinib] + Cn1cnc2c(F)c(Nc3ccc(Br)cc3Cl)c(C(=O)NOCCO)cc21 [Selumetinib] (first compound max 10 µM, 7x7, partner max 10 µM) | 0.0388 | -0.0524 | 0.0085 | 0.0084 | -0.0241 | -0.067 | -0.054 | -0.0598 | -0.0252 | -0.0382 | -0.0166 | -0.0375 | 0.0362 | 0.0746
8 | C[C@@H](Oc1cc(-c2cnn(C3CCNCC3)c2)cnc1N)c1c(Cl)ccc(F)c1Cl [Crizotinib] + CC1=C(C(=CC=C1)Cl)NC(=O)C2=CN=C(S2)NC3=CC(=NC(=N3)C)N4CCN(CC4)CCO [Dasatinib] (first compound max 10 µM, 7x7, partner max 2 µM) | -0.0805 | 0.016 | 0.123 | -0.0089 | 0.0287 | -0.0536 | -0.0485 | -0.0052 | 0.103 | -0.0662 | 0.067 | -0.0384 | -0.0002 | 0.0032
9 | CN(CCO)CC[C@H](CSc1ccccc1)Nc1ccc(S(=O)(=O)NC(=O)c2ccc(N3CCC([C@@H](O)c4ccccc4-c4ccc(Cl)cc4)CC3)cc2)cc1S(=O)(=O)C(F)(F)F [AZD4320] + CS(=O)(=O)CCNCc1ccc(-c2ccc3ncnc(Nc4ccc(OCc5cccc(F)c5)c(Cl)c4)c3c2)o1 [Lapatinib] (first compound max 1 µM, 7x7, partner max 10 µM) | 0.0048 | -0.0544 | -0.0664 | 0.0409 | 0.0542 | 0.0511 | 0.0667 | 0.019 | 0.0765 | 0.0386 | 0.0488 | -0.0385 | -0.0113 | 0.0697
10 | O=C(c1cc(Cc2n[nH]c(=O)c3ccccc23)ccc1F)N1CCN(C(=O)C2CC2)CC1 [Olaparib] + Cc1c2c(nn1C)CSCc1cc(n(C)n1)CSc1cc(c3ccccc3c1)OCCCc1c(C(=O)O)n(C)c3c-2c(Cl)ccc13 [AZD5991] (first compound max 10 µM, 7x7, partner max 1 µM) | 0.0141 | -0.0383 | -0.0455 | 0.024 | -0.0427 | -0.0097 | -0.0082 | -0.0291 | -0.0388 | -0.0514 | -0.0158 | -0.053 | -0.0333 | 0.0121
11 | Cc1c2c(nn1C)CSCc1cc(n(C)n1)CSc1cc(c3ccccc3c1)OCCCc1c(C(=O)O)n(C)c3c-2c(Cl)ccc13 [AZD5991] + Nc1ccn([C@@H]2O[C@H](CO)[C@@H](O)C2(F)F)c(=O)n1 [Gemcitabine] (first compound max 1 µM, 7x7, partner max 0.3 µM) | 0.06 | -0.0666 | 0.006 | 0.0489 | 0.0112 | 0.053 | -0.102 | -0.0145 | -0.0199 | -0.0274 | -0.0605 | -0.0232 | 0.0168 | 0.031
12 | CN(CCO)CC[C@H](CSc1ccccc1)Nc1ccc(S(=O)(=O)NC(=O)c2ccc(N3CCC([C@@H](O)c4ccccc4-c4ccc(Cl)cc4)CC3)cc2)cc1S(=O)(=O)C(F)(F)F [AZD4320] + Nc1ccn([C@@H]2O[C@H](CO)[C@@H](O)C2(F)F)c(=O)n1 [Gemcitabine] (first compound max 1 µM, 7x7, partner max 0.3 µM) | -0.029 | -0.0628 | -0.0261 | 0.0135 | 0.0559 | 0.0381 | -0.0318 | -0.0349 | 0.0546 | 0.0634 | -0.0366 | 0.0195 | 0.0191 | -0.0168
13 | N#Cc1cnc(Nc2cc(NC[C@H]3CNCCO3)c(C(F)(F)F)cn2)cn1 [SRA737] + CCc1c2c(nc3ccc(O)cc13)-c1cc3c(c(=O)n1C2)COC(=O)[C@]3(O)CC [SN-38] (first compound max 10 µM, 7x7, partner max 0.3 µM) | -0.0472 | -0.0339 | 0.0179 | -0.0649 | -0.0682 | -0.0809 | -0.114 | 0.0125 | -0.038 | -0.0191 | -0.0469 | -0.0485 | 0.0196 | 0.0655
14 | C[C@@H](Nc1cc(F)cc(F)c1)c1cc(C(=O)N(C)C)cc2c(=O)cc(N3CCOCC3)oc12 [AZD8186] + C1CN(CCC1(C(=O)N[C@@H](CCO)C2=CC=C(C=C2)Cl)N)C3=NC=NC4=C3C=CN4 [AZD5363] (first compound max 10 µM, 7x7, partner max 10 µM) | -0.0191 | -0.0474 | 0.0024 | -0.0006 | 0.0152 | -0.0297 | -0.0681 | 0.0227 | -0.0125 | -0.0781 | 0.026 | -0.0471 | -0.0172 | 0.0152
15 | Cc1c2c(nn1C)CSCc1cc(n(C)n1)CSc1cc(c3ccccc3c1)OCCCc1c(C(=O)O)n(C)c3c-2c(Cl)ccc13 [AZD5991] + CC(=O)O[C@H]1C(=O)[C@@]2(C)[C@H]([C@H](OC(=O)c3ccccc3)[C@]3(O)C[C@H](OC(=O)[C@H](O)[C@@H](NC(=O)c4ccccc4)c4ccccc4)C(C)=C1C3(C)C)[C@]1(OC(C)=O)CO[C@@H]1C[C@@H]2O [Paclitaxel] (first compound max 1 µM, 7x7, partner max 3 µM) | 0.0342 | -0.0192 | -0.0453 | 0.0016 | -0.0112 | 0.0523 | -0.0216 | 0.078 | -0.0242 | -0.0187 | -0.0492 | 0.0104 | -0.1 | -0.0174
16 | Cc1nc(-c2cn3c(n2)-c2ccc(-c4cnn(C(C)(C)C(N)=O)c4)cc2OCC3)n(C(C)C)n1 [Taselisib] + O=C(Nc1ccc2[nH]nc(-c3ccncc3)c2c1)[C@@H]1CCN(CC(=O)N2CCN(c3ccc(-c4ncccn4)cc3)CC2)C1 [SCH772984] (first compound max 10 µM, 7x7, partner max 5 µM) | 0.0783 | -0.0867 | 0.0654 | 0.126 | 0.113 | 0.0051 | -0.0377 | 0.0631 | -0.0071 | -0.0479 | 0.0568 | 0.0003 | 0.111 | 0.116
17 | C[C@@H]1COCCN1c1cc(C2([S@](C)(=N)=O)CC2)nc(-c2ccnc3[nH]ccc23)n1 [AZD6738] + Nc1ccn([C@@H]2O[C@H](CO)[C@@H](O)C2(F)F)c(=O)n1 [Gemcitabine] (first compound max 10 µM, 7x7, partner max 0.3 µM) | -0.0172 | -0.0399 | 0.0963 | 0.0304 | -0.0102 | 0.0108 | -0.0336 | 0.0295 | -0.0109 | -0.0359 | 0.0205 | 0.0577 | 0.0492 | 0.135
